{
  "source": "patent US8609653B2",
  "about": "“Azaindole compounds and methods for treating HIV” (priority 2011, dated 2013)",
  "test_system": "HIV",
  "test": "MT4 assay: antiviral HIV activity in MT-4 cells",
  "format": "cell-based",
  "settings": "Human immunodeficiency virus 1, MT4, 96 h, read-out: HIV MT4 Assay IC50 (μM), HTLV-1 transformed cell line MT-4; read-out 96 hours later with cell titer glo; 10 point dose response",
  "in_short": "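Compounds tested in HTLV-1-transformed MT-4 cells for protection from HIV, with cytotoxicity run in parallel under the same conditions; CellTiter-Glo luminescence read 96 h later. IC50 from 10-point, 3–4-fold serial dilutions spanning >1000-fold, % inhibition relative to no-compound control, fitted by four-parameter logistic.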",
  "note": "Where a name gives a salt, the structure may show the parent alone.",
  "data": [
    {"smiles": "Cc1nc2c(ccn2[C@@H](C)c2ccc(F)cc2)c(-c2ccc3c(c2)CCCO3)c1[C@@H](OC(C)(C)C)C(=O)O", "note": "[Example 84, (R)-2-(tert-butoxy)-2-(4-(chroman-6-yl)-1-((S)-1-(4-fluorophenyl)ethyl)-6-methyl-1H-pyrrolo[2,3-b]pyridin-5-yl)acetic acid]", "values": [
      {"measurement": "IC50", "value": 0.124, "unit": "µM"}
    ]},
    {"smiles": "Cc1nc2c(ccn2[C@@H](C)c2ccc(F)cc2)c(-c2ccc3c(c2)CCCO3)c1[C@H](OC(C)(C)C)C(=O)O", "note": "[Example 85, (S)-2-(tert-butoxy)-2-(4-(chroman-6-yl)-1-((S)-1-(4-fluorophenyl)ethyl)-6-methyl-1H-pyrrolo[2,3-b]pyridin-5-yl)acetic acid]", "values": [
      {"measurement": "IC50", "value": 0.955, "unit": "µM"}
    ]},
    {"smiles": "Cc1nc2c(ccn2Cc2cccc(F)c2F)c(-c2ccc3c(c2)CCCO3)c1[C@@H](OC(C)(C)C)C(=O)O", "note": "[Example 86, (R)-2-(tert-butoxy)-2-(4-(chroman-6-yl)-1-(2,3-difluorobenzyl)-6-methyl-1H-pyrrolo[2,3-b]pyridin-5-yl)acetic acid]", "values": [
      {"measurement": "IC50", "value": 50, "unit": "µM"}
    ]},
    {"smiles": "Cc1ccc(-c2c([C@H](OC(C)(C)C)C(=O)O)c(C)nc3c2ccn3Cc2ccccc2F)cc1", "note": "[Example 88, (S)-2-(tert-butoxy)-2-(1-(2-fluorobenzyl)-6-methyl-4-(p-tolyl)-1H-pyrrolo[2,3-b]pyridin-5-yl)acetic acid]", "values": [
      {"measurement": "IC50", "value": 0.107, "unit": "µM"}
    ]},
    {"smiles": "Cc1nc2c(ccn2Cc2ccc(F)cc2Cl)c(-c2ccc(Cl)cc2)c1[C@H](OC(C)(C)C)C(=O)O", "note": "[Example 89, (S)-2-(tert-butoxy)-2-(1-(2-chloro-4-fluorobenzyl)-4-(4-chlorophenyl)-6-methyl-1H-pyrrolo[2,3-b]pyridin-5-yl)acetic acid]", "values": [
      {"measurement": "IC50", "value": 0.065, "unit": "µM"}
    ]},
    {"smiles": "Cc1nc2c(ccn2Cc2ccc(F)cc2)c(-c2ccc(Cl)cc2F)c1C(OC(C)(C)C)C(=O)O", "note": "(stereo not shown) [Example 90, 2-(tert-Butoxy)-2-(4-(4-chloro-2-fluorophenyl)-1-(4-fluorobenzyl)-6-methyl-1H-pyrrolo[2,3-b]pyridin-5-yl)acetic acid]", "values": [
      {"measurement": "IC50", "value": 0.48, "unit": "µM"}
    ]},
    {"smiles": "Cc1nc2c(ccn2Cc2ccc(F)cc2)c(-c2ccccc2F)c1C(OC(C)(C)C)C(=O)O", "note": "(stereo not shown) [Example 91, 2-(tert-Butoxy)-2-(1-(4-fluorobenzyl)-4-(2-fluorophenyl)-6-methyl-1H-pyrrolo[2,3-b]pyridin-5-yl)acetic acid]", "values": [
      {"measurement": "IC50", "value": 0.168, "unit": "µM"}
    ]},
    {"smiles": "COc1c(C)cc(-c2c(C(OC(C)(C)C)C(=O)O)c(C)nc3c2ccn3Cc2ccc(F)cc2)cc1C", "note": "(stereo not shown) [Example 92, 2-(tert-Butoxy)-2-(1-(4-fluorobenzyl)-4-(4-methoxy-3,5-dimethylphenyl)-6-methyl-1H-pyrrolo[2,3-b]pyridin-5-yl)acetic acid]", "values": [
      {"measurement": "IC50", "value": 0.98, "unit": "µM"}
    ]},
    {"smiles": "Cc1ccc(-c2c(C(OC(C)(C)C)C(=O)O)c(C)nc3c2ccn3Cc2ccc(F)cc2)c(F)c1", "note": "(stereo not shown) [Example 93, 2-(tert-Butoxy)-2-(4-(2-fluoro-4-methylphenyl)-1-(4-fluorobenzyl)-6-methyl-1H-pyrrolo[2,3-b]pyridin-5-yl)acetic acid]", "values": [
      {"measurement": "IC50", "value": 0.046, "unit": "µM"}
    ]},
    {"smiles": "Cc1cc(Cl)ccc1-c1c(C(OC(C)(C)C)C(=O)O)c(C)nc2c1ccn2Cc1ccc(F)cc1", "note": "(stereo not shown) [Example 94, 2-(tert-Butoxy)-2-(4-(4-chloro-2-methylphenyl)-1-(4-fluorobenzyl)-6-methyl-1H-pyrrolo[2,3-b]pyridin-5-yl)acetic acid, Trifluoroacetic acid salt]", "values": [
      {"measurement": "IC50", "value": 0.11, "unit": "µM"}
    ]},
    {"smiles": "Cc1nc2c(ccn2Cc2ccc(F)c(F)c2)c(-c2ccc(F)cc2)c1[C@H](OC(C)(C)C)C(=O)O", "note": "[Example 102, (S)-2-(tert-Butoxy)-2-(1-(3,4-difluorobenzyl)-4-(4-fluorophenyl)-6-methyl-1H-pyrrolo[2,3-b]193pyridine-5-yl)acetic acid]", "values": [
      {"measurement": "IC50", "value": 0.367, "unit": "µM"}
    ]},
    {"smiles": "COc1ccc(-c2c([C@H](OC(C)(C)C)C(=O)O)c(C)nc3c2ccn3Cc2ccc(F)c(F)c2)cc1C", "note": "[Example 103, (S)-2-(tert-Butoxy)-2-(1-(3,4-difluorobenzyl)-4-(4-methoxy-3-methylphenyl)-6-methyl-1H-pyrrolo[2,3-b]pyridin-5-yl)acetic acid]", "values": [
      {"measurement": "IC50", "value": 0.81, "unit": "µM"}
    ]},
    {"smiles": "Cc1nc2c(ccn2Cc2ccc(F)c(F)c2)c(-c2ccc(F)c(Cl)c2)c1[C@H](OC(C)(C)C)C(=O)O", "note": "[Example 105, (S)-2-(tert-Butoxy)-2-(4-(3-chloro-4-fluorophenyl)-1-(3,4-difluorobenzyl)-6-methyl-1H-pyrrolo[2,3-b]pyridin-5-yl)acetic acid]", "values": [
      {"measurement": "IC50", "value": 1.42, "unit": "µM"}
    ]},
    {"smiles": "Cc1nc2c(ccn2Cc2ccc(F)c(F)c2)c(-c2ccc(Cl)c(F)c2)c1[C@H](OC(C)(C)C)C(=O)O", "note": "[Example 106, (S)-2-(tert-Butoxy)-2-(4-(4-chloro-3-fluorophenyl)-1-(3,4-difluorobenzyl)-6-methyl-1H-pyrrolo[2,3-b]pyridin-5-yl)acetic acid]", "values": [
      {"measurement": "IC50", "value": 0.1, "unit": "µM"}
    ]},
    {"smiles": "Cc1nc2c(c(-c3ccc4c(c3C)CCCO4)c1[C@H](OC(C)(C)C)C(=O)O)CCN2Cc1ccc(F)c(F)c1", "note": "[Example 107, (2S)(M)-2-(tert-Butoxy)-2-(1-(3,4-difluorobenzyl)-6-methyl-4-(5-methylchroman-6-yl)-2,3-dihydro-1H-pyrrolo[2,3-b]pyridin-5-yl)acetic acid, Trifluoroacetic acid salt]", "values": [
      {"measurement": "IC50", "value": 0.008, "unit": "µM"}
    ]},
    {"smiles": "Cc1nc2c(ccn2Cc2ccc(F)c(F)c2)c(-c2ccc3c(c2)CCO3)c1[C@H](OC(C)(C)C)C(=O)O", "note": "[Example 112, (S)-2-(tert-butoxy)-2-(1-(3,4-difluorobenzyl)-4-(2,3-dihydrobenzofuran-5-yl)-6-methyl-1H-pyrrolo[2,3-b]pyridin-5-yl)acetic acid]", "values": [
      {"measurement": "IC50", "value": 0.011, "unit": "µM"}
    ]},
    {"smiles": "Cc1nc2c(ccn2Cc2ccc(F)c(F)c2)c(C2=CCC(C)(C)CC2)c1[C@H](OC(C)(C)C)C(=O)O", "note": "[Example 114, (S)-2-(tert-butoxy)-2-(1-(3,4-difluorobenzyl)-4-(4,4-dimethylcyclohex-1-en-1-yl)-6-methyl-1H-pyrrolo[2,3-b]pyridin-5-yl)acetic acid]", "values": [
      {"measurement": "IC50", "value": 0.08, "unit": "µM"}
    ]},
    {"smiles": "Cc1ccc(-c2c([C@H](OC(C)(C)C)C(=O)O)c(C)nc3c2ccn3Cc2ccc(F)c(F)c2)c(F)c1", "note": "[Example 115, (2S)-2-(tert-Butoxy)-2-(1-(3,4-difluorobenzyl)-4-(2-fluoro-4-methylphenyl)-6-methyl-1H-pyrrolo[2,3-b]pyridin-5-yl)acetic acid]", "values": [
      {"measurement": "IC50", "value": 0.029, "unit": "µM"}
    ]},
    {"smiles": "Cc1nc2c(ccn2Cc2ccc(F)c(F)c2)c(-c2ccc3ncsc3c2)c1[C@H](OC(C)(C)C)C(=O)O", "note": "[Example 117, (S)-2-(4-(Benzo[d]thiazol-6-yl)-1-(3,4-difluorobenzyl)-6-methyl-1H-pyrrolo[2,3-b]pyridin-5-yl)-2-(tert-butoxy)acetic acid, Trifluoroacetic acid salt]", "values": [
      {"measurement": "IC50", "value": 0.036, "unit": "µM"}
    ]},
    {"smiles": "Cc1nc2c(ccn2Cc2ccc(F)c(F)c2)c(C2=CCCCC2)c1[C@H](OC(C)(C)C)C(=O)O", "note": "[Example 120, (S)-2-(tert-butoxy)-2-(4-(cyclohex-1-en-1-yl)-1-(3,4-difluorobenzyl)-6-methyl-1H-pyrrolo[2,3-b]pyridin-5-yl)acetic acid]", "values": [
      {"measurement": "IC50", "value": 0.15, "unit": "µM"}
    ]},
    {"smiles": "COc1cccc(F)c1Cn1ccc2c(-c3ccc4c(c3C)CCCO4)c([C@H](OC(C)(C)C)C(=O)O)c(C)nc21", "note": "[Example 121, (2S)-2-(tert-butoxy)-2-(1-(2-fluoro-6-methoxybenzyl)-6-methyl-4-(5-methylchroman-6-yl)-1H-pyrrolo[2,3-b]pyridin-5-yl)acetic acid]", "values": [
      {"measurement": "IC50", "value": 0.002, "unit": "µM"}
    ]},
    {"smiles": "Cc1nc2c(ccn2Cc2ccc(F)c(F)c2)c(-c2ccc3c(c2)C(C)(C)CO3)c1[C@H](OC(C)(C)C)C(=O)O", "note": "[Example 123, (S)-2-(tert-butoxy)-2-(1-(3,4-difluorobenzyl)-4-(3,3-dimethyl-2,3-dihydrobenzofuran-5-yl)-6-methyl-1H-pyrrolo[2,3-b]pyridin-5-yl)acetic acid]", "values": [
      {"measurement": "IC50", "value": 2.86, "unit": "µM"}
    ]},
    {"smiles": "Cc1cc(F)ccc1Cn1ccc2c(-c3ccc4c(c3C)CCCO4)c([C@H](OC(C)(C)C)C(=O)O)c(C)nc21", "note": "[Example 125, (2S)-2-(tert-butoxy)-2-(1-(4-fluoro-2-methylbenzyl)-6-methyl-4-(5-methylchroman-6-yl)-1H-pyrrolo[2,3-b]pyridin-5-yl)acetic acid]", "values": [
      {"measurement": "IC50", "value": 0.003, "unit": "µM"}
    ]},
    {"smiles": "Cc1nc2c(c(-c3ccc4c(c3C)CCCO4)c1C(OC(C)(C)C)C(=O)O)c1ccccc1n2C", "note": "(stereo not shown) [Example 127, 2-(tert-butoxy)-2-(2,9-dimethyl-4-(5-methylchroman-6-yl)-9H-pyrido[2,3-b]indol-3-yl)acetic acid]", "values": [
      {"measurement": "IC50", "value": 0.05, "unit": "µM"}
    ]},
    {"smiles": "Cc1nc2c(c3c(n2C2CC2)CCCC3)c(-c2ccc3c(c2C)CCCO3)c1C(OC(C)(C)C)C(=O)O", "note": "(stereo not shown) [Example 128, 2-(tert-butoxy)-2-(9-cyclopropyl-2-methyl-4-(5-methylchroman-6-yl)-6,7,8,9-tetrahydro-5H-pyrido[2,3-b]indol-3-yl)acetic acid]", "values": [
      {"measurement": "IC50", "value": 0.06, "unit": "µM"}
    ]}
  ]
}
